A short description of assay [1]: Selectivity ratio is the ratio between the IC50 values of rat liver and Pneumocystis carinii.
Assay [2] concerns the target T1, Dihydrofolate reductase (Rattus norvegicus, UniProt Q920D2).
T1 sequence (Q920D2 whole entry): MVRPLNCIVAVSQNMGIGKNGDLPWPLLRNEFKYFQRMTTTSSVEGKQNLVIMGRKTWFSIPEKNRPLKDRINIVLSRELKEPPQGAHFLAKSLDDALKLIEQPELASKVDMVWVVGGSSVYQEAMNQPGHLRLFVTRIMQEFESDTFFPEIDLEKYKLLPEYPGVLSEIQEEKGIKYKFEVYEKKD
Description: Compound was tested for inhibition activity against rat liver lipophilic Dihydrofolate reductase (DHFR).

The target of assay [3] is T2, Bifunctional dihydrofolate reductase-thymidylate synthase (Toxoplasma gondii, UniProt Q07422).
T2 sequence (Q07422 whole entry): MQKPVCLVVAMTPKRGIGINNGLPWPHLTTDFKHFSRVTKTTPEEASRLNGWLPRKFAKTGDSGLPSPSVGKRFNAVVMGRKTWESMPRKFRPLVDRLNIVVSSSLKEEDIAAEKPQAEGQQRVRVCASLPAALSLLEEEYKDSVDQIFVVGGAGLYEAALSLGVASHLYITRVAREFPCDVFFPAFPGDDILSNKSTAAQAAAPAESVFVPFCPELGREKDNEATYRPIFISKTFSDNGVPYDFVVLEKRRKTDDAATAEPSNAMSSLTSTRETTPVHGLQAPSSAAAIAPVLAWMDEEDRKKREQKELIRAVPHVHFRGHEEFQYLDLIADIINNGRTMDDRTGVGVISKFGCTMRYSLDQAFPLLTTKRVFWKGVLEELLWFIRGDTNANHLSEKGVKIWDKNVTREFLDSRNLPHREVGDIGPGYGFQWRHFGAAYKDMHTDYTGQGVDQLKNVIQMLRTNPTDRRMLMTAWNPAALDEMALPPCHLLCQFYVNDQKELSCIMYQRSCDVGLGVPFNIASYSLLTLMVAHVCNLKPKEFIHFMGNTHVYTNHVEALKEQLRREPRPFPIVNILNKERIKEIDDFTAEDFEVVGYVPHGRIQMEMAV
Briefly: Compound was tested for inhibition activity against Toxoplasma gondii (Toxoplasma gondii) Dihydrofolate reductase.

Assay [4] can be described thus: Selectivity ratio is the ratio between the IC50 values of rat liver and Toxoplasma gondii.
For assay [5], the target named is T3, Dihydrofolate reductase (Pneumocystis carinii, UniProt P16184).
T3 sequence (P16184 whole entry): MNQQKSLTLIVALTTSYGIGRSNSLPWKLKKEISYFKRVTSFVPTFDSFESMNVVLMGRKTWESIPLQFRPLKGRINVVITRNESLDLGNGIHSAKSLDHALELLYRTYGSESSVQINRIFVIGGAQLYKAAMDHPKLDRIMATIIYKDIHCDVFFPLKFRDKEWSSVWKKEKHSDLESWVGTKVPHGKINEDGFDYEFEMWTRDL
Description: Compound was tested for inhibition activity against pneumocystis carinii (Pneumocystis carinii) Dihydrofolate reductase

Structures are written as SMILES.

A word on the IC50: it is the concentration at which inhibition is half-maximal. As for `COc1cc(CCCC2CCc3nc(N)nc(N)c32)cc(OC)c1OC` (stereo not given), the Selectivity ratio in assay [1] was determined as 0.17; in assay [4], 1.57. Moreover, the figures for the IC50 (at Dihydrofolate reductase [2]; in assay [3]; against Dihydrofolate reductase [5]) were 220 nM, 140 nM and 1300 nM, respectively.
Regarding `COc1cc(CC2CCc3nc(N)nc(N)c32)cc(OC)c1OC` (stereo not given), the values for the concentration for half-maximal inhibition (IC50) (on Dihydrofolate reductase [2]; in assay [3]; against Dihydrofolate reductase [5]) were 69000 nM, 21000 nM and above 32000 nM, respectively. Further, the Selectivity ratio in assay [4] was 3.29.
Take `COc1cc(CCC2CCc3nc(N)nc(N)c32)cc(OC)c1OC` (stereo not given): the figures for the Selectivity ratio in assay [1] and in assay [4] were 0.28 and 3.64, respectively. For the same compound, the values for the IC50 (on Dihydrofolate reductase [2]; in assay [3]; at Dihydrofolate reductase [5]) were 510 nM, 140 nM and 1800 nM, respectively.
As to `COc1ccc(OC)c(Cc2cnc3nc(N)nc(N)c3c2C)c1` [PIRITREXIM], at Dihydrofolate reductase [2], it took 15 nM to reach half-maximal inhibition (IC50).
